Tests used:
[1] = system: PMA-stimulated P90RSK(Ser380) phosphorylation in HepG2 cells; assay: Cellular P90RSK(Ser380) Phosphorylation Assay; format: cell-based; settings: Homo sapiens, 1.5 h compound incubation, PMA stimulation, pP90RSK(Ser380) normalized to GAPDH, read-out: Cell Assay IC50
Outline: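 HepG2 cells were pretreated with compound (0.5% DMSO final) for 1.5 h, then stimulated with PMA 100 ng/mL for 30 min at 37° C. Fixed, permeabilized cells were immunostained for pP90RSK(Ser380) and GAPDH. The two-channel infrared fluorescence was read, and the phospho signal was normalized to GAPDH.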

[2] = biological target: human ERK-2 (Mitogen Activated Kinase 1) (Homo sapiens (Human), UniProt P28482); assay: ERK-2 Enzymatic Assay; format: biochemical; settings: 5 nM ERK-2, 25 μM ATP, Omnia peptide S/T17; read-out: ERK Inhibition IC50
Chain of human ERK-2 (Mitogen Activated Kinase 1) (P28482 8-360): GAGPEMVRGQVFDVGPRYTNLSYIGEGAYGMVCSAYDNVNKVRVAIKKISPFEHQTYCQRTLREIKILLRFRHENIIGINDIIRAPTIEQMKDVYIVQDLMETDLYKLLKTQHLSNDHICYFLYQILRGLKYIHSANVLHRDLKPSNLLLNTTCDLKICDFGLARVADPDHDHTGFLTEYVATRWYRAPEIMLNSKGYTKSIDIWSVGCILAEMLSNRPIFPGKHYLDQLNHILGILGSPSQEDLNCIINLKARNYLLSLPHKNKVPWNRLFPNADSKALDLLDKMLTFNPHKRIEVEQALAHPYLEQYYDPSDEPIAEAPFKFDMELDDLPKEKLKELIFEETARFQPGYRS
Outline: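 Recombinant N-terminal 6-His human ERK-2 (aa 8-360, E. coli) with fluorescent Omnia peptide S/T17 substrate, ambient temperature, read kinetically every 50 s for ~30 min (Ex 340/Em 495 nm). Linear rates converted to percent of control; IC50 from four-parameter fit.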

HCT116 cells = assay: Cell Proliferation/Viability Assay (Cell Titer-Blue, 72 h); format: cell-based; settings: Homo sapiens, HCT-116, 3-day (72-hour) incubation
Method: The cytotoxic or cytostatic activity of formula I exemplary compounds was measured by: establishing a proliferating mammalian tumor cell line in a cell culture medium, adding a formula I compound, culturing the cells for a period from about 6 h to about 5 d; and measuring cell viability (Example 78). Cell-based in vitro assays were used to measure viability, i.e. proliferation (IC50), cytotoxicity (EC50).
Viable cells after a 3-day (72-hour) incubation with ERK compounds were quantified using the Cell Titer-Blue Cell Viability Assay from Promega.
Materials and Methods: HCT116 cells were plated in 96 well micro-plates at a density of 1,000 cells/well. The cells were allowed to attach to micro-plate overnight at 37° C./5% CO2. After overnight attachment, diluted compounds were then added to the cells at a final concentration of 0.5% DMSO. After 3 days (72 hours) at 37° C./5% CO2, the number of viable cells was determined using the Cell Titer-Blue Cell Viability Assay from Promega. Briefly, Cell Titer-Blue reagent were added to the cells and incubated for 1 hour. Fluorescense (560 nmexcitation/590 nmemission) was then read using a fluorescence micro-plate reader. Background from high concentration ERK-inhibited wells was subtracted. Representative date is in TABLE III (infra).

Work on `C[C@@H](NC(=O)N1CCc2cnc(N[C@H]3CC[C@H](O)C3)nc2C1)c1ccc(C(F)(F)F)c(F)c1` [Compound I-52, N—((R)-1-(3-fluoro-4-(trifluoromethyl)phenyl)ethyl)-2-((1S,3S)-3-hydroxycyclopentylamino)-5,6-dihydropyrido[3,4-d]pyrimidine-7(8H)-carboxamide] yielded an IC50 [1] of 57 nM, an IC50 [2] of 2.7 nM and an IC50 (HCT116 cells) of 1400 nM.
In the case of `CC(C)Nc1ncc2c(n1)CN(C(=O)N[C@H](CCC#N)c1ccc(Cl)c(Cl)c1)CC2` [Compound I-104, (R)—N-(3-cyano-1-(3,4-dichlorophenyl)propyl)-2-(isopropylamino)-5,6-dihydropyrido[3,4-d]pyrimidine-7(8H)-carboxamide], the IC50 [1] is reported as 58.6 nM, the IC50 [2] is reported as 2.2 nM and the IC50 (HCT116 cells) is reported as 1600 nM.
`O=C(NCc1cc2ccccc2[nH]1)N1CCc2cnc(NC3CCOCC3)nc2C1` [Compound I-114, N-((1H-indol-2-yl)methyl)-2-(tetrahydro-2H-pyran-4-ylamino)-5,6-dihydropyrido[3,4-d]pyrimidine-7(8H)-carboxamide] gave an IC50 [1] of 25.4 nM, an IC50 [2] of 23.2 nM and an IC50 (HCT116 cells) of 1500 nM.
Compound `CC(C)Nc1ncc2c(n1)CN(C(=O)N[C@@H]1CN(C)C[C@H]1c1ccc(C(F)(F)F)c(F)c1)CC2` [Compound I-120, N-((3S,4R)-4-(3-fluoro-4-(trifluoromethyl)phenyl)-1-methylpyrrolidin-3-yl)-2-(isopropylamino)-5,6-dihydropyrido[3,4-d]pyrimidine-7(8H)-carboxamide] has an IC50 [1] of 37.8 nM, an IC50 [2] of 1.6 nM and an IC50 (HCT116 cells) of 557 nM.
`CN1C[C@@H](NC(=O)N2CCc3cnc(NC4CCOCC4)nc3C2)[C@H](c2ccc(Cl)c(F)c2)C1` [Compound I-124, N-((3S,4R)-4-(4-chloro-3-fluorophenyl)-1-methylpyrrolidin-3-yl)-2-(tetrahydro-2H-pyran-4-ylamino)-5,6-dihydropyrido[3,4-d]pyrimidine-7(8H)-carboxamide] gave an IC50 [1] of 5.95 nM, an IC50 [2] of 2.3 nM and an IC50 (HCT116 cells) of 47.5 nM.
`C[C@@H](CO)Nc1cc2c(cn1)CCN(C(=O)N[C@H](C)c1ccc(Cl)c(Cl)c1)C2` [Compound I-149, N—((R)-1-(3,4-dichlorophenyl)ethyl)-7-((S)-1-hydroxypropan-2-ylamino)-3,4-dihydro-2,6-naphthyridine-2(1H)-carboxamide] showed an IC50 [1] of 75.7 nM, an IC50 [2] of 3 nM and an IC50 (HCT116 cells) of 4100 nM.
